Results reported in article PMC12658643, “Effects of Ligand N and O Donor Content on the Structure, Aqueous Stability, and SOD Activity of a Series of Mn^2+ Complexes with Pyridine-Containing Tripodal Ligands” (ACS Omega, 2025).
Like-named read-outs stand apart in the source and are kept apart here.

Experiments:
superoxide ion [1] = test: McCord-Fridovich assay (SOD activity, inhibition of ferricytochrome c reduction by superoxide ion); assay type: biochemical
Text: The McCord–Fridovich assay was used to measure the SOD activity of the Mn^2+ complexes of our ligands formed in situ. This assay utilizes the reaction of xanthine oxidase with xanthine to produce superoxide ion which, in turn, reduces ferricytochrome C. The reduction of ferricytochrome C is monitored at 550 nm in the absence and presence of SOD mimics to determine the concentration at which the complexes inhibit ferricytochrome C reduction by 50%, their IC50 value. […] Stock solutions of cytochrome C, xanthine, xanthine oxidase, catalase, and MnCl2 were also prepared with this buffer. The temperature of the reactions was held constant at 25 °C using a Peltier attachment to the spectrophotometer. For a typical reaction, a solution was prepared in a cuvette containing 50 μM cytochrome c, 50 μM xanthine, 30 μg/mL catalase, and enough buffer to provide a total of 3 mL of solution. Approximately 100 μg/mL xanthine oxidase was added to initiate the reaction. This quantity was adjusted to give an initial velocity of 0.025–0.030 ΔAbs550nm/min. The reaction was monitored at 550 nm. After 2.5 min, a quantity of MnCl2 was added and the absorbance was monitored for another 2.5 min. Reactions were run in triplicate for each different concentration of Mn^2+ examined, and percent inhibition was calculated as %I=(V0−Vf/V0)×100% , where V 0 and V f are the initial and final velocities respectively. Plots of %I vs [Mn^2+] were used to determine the IC50 for each complex. To verify the fidelity of the McCord-Fridovich assay, the production of urate by the xanthine/xanthine oxidase reaction at 290 nm in the absence and presence of each complex, and no inhibition at a concentration higher than the IC50 was observed.
The SOD-like activity of Mn^2+ complexes of the tripodal ligands was evaluated using the McCord-Fridovich assay. This is an indirect assay that examines the reduction of ferricytochrome c by superoxide ion in the absence and presence of SOD or potential SOD mimetic compounds. The reaction of xanthine with xanthine oxidase provides a source of superoxide ion for the assay, and the reduction of ferricytochrome c is monitored at 550 nm. Given their low to moderate aqueous stability, it was not possible to use preformed complexes for these assays since we would not expect them to remain intact at the micromolar concentrations employed. Instead, Mn^2+ complexes were formed in situ, in buffered, aqueous solution (pH 7.5), by combining the ligands with manganese(II) chloride. In each case, an excess of ligand was included to produce Mn^2+ complexation as close to 100% as possible, while avoiding solubility issues. Percent complexation of the complexes under these conditions has been estimated from the 1:1 [MnL]^2+ stability constants (βMnL) in Table , based on the ligand complex concentration employed and an Mn^2+ concentration close to the IC50 values of the complexes (0.1 μM). We note that, given the high concentrations of ligand present in our experiments, higher speciation complexes (e.g., [MnL2]^2+) may also be present in our reaction solutions, resulting from adventitious mono-or bidentate-coordination of an additional ligand. These types of species have been observed previously for Mn^2+ complexes with a related ligand (HPClNOL), where HPClNOL is the tripodal ligand {1-[bis(pyridine-2-ylmethyl)-amino]-3-chloropropan-2-ol}, yet in a 50:50, MeOH/H2O solution where overall complex stability is expected to be much higher. Since we cannot rule out higher speciation under the conditions of these in situ experiments, our use of the term Mn^2+ complexes is meant to indicate all [MnL]^2+ or [MnL x ]^2+ species present in reaction solutions here.
Percent inhibition plots for MnCl2 in both HEPES and phosphate buffer are provided in Supporting Information (Figures S35 and S36). […]

[2] = for pK aMnL(H2O) (acid dissociation constant of an associated aqua ligand) / Log Ka MnL(H2O) / Log βMnL (stability constant of the Mn^2+ complex) / Log bMnL: I = 0.10 M KCl; for pK aMnL(H2O) (acid dissociation constant of an associated aqua ligand) / Log βMnL (stability constant of the Mn^2+ complex): t = 25 °C; for conditional complex formation: McCord-Fridovich assay conditions, HEPES buffer pH 7.5, excess ligand, Mn^2+ 0.1 μM, estimated from βMnL; for Log Ka MnL(H2O) / Log bMnL: Table S35, t = 25°C; for % Complex (McCord-Fridovich assays): Table S37, ligand 0.001 M (TMPA, DPEA, DPMEA) or 0.01 M (PDEA, PDMEA), MnCl2 0.1 µM, estimated from stability studies; for % Complex (complex formation under cyclic voltammetry conditions): ligand 0.001 M (TMPA) or 0.01 M, MnCl2 0.001 M, estimated from complex stability studies
[3] = Potentiometric titration of the acidified ligands (protonation constants); details: I = 0.10 M KCl; for Log βLH1 (protonation constant of the ligand) / Log βLH2 (protonation constant of the ligand): t = 25 °C; for Log Ka1 / Log Ka2: Table S35, t = 25°C
superoxide ion [4] = details: reported previously; reference not given; read-out: IC50 (SOD activity); cited from earlier work
[5] = Cyclic voltammetry of Mn^2+ complexes formed in situ, Mn^III/Mn^II couple; assay type: physicochemical
Description: Cyclic voltammograms were recorded in 50 mM collidine buffer, pH 7.5, using an eDAQ 466 Integrated Potentiostat System with EChem software. Mn^2+ complexes were formed in situ in the presence of excess ligand to ensure a high percentage of complex formation (see Table S35 in Supporting Information) according to our stability studies vide infra. A glassy carbon working electrode, Ag/AgCl reference electrode, and Pt/Ti auxiliary electrode were employed. Prior to recording CVs, solutions were bubbled with nitrogen gas for 15 min to eliminate oxygen. CVs were then recorded at a scan rate of 100 mV/s.
Cyclic voltammograms of the Mn^2+ complexes of TMPA, DPEA, DPMEA, PDEA, and PDMEA, prepared in situ in buffered aqueous solution (pH 7.5), were recorded vs Ag/AgCl to determine the reduction potential (E 1/2) for the Mn^III/Mn^II couple. A cyclic voltammogram of MnCl2 in the buffered solution was also recorded for the purpose of comparison. Collidine buffer was employed for analysis since it tends to permit visualization of electrochemical waves for Mn^2+ complexes with pyridine-containing ligands, where other solvents/buffers can lead to ill-defined or absent features for these species. Ligand and MnCl2 concentrations were chosen to ensure near complete (N4 and N3O), or substantial (N2O2) complex formation according to our stability studies. For [MnTMPA]^2+, an equimolar amount of TMPA and MnCl2 were used (0.001 M), and for all other complexes, ligand concentration (0.01 M) was 10-fold the concentration of MnCl2 (0.001 M). In each case, […] waves were recorded where the difference in oxidation and reduction peak positions (ΔE p) is greater than 59 mV. Redox potential values (E 1/2), determined from the average of the positions of the oxidation and reduction peaks, are given in Table along with ΔE p values. The distinct positions of these peaks, relative to those of MnCl2, further corroborate [MnL]^2+ aqueous complex formation of the N4, N3O, and N2O2 ligands employed. Voltammograms can be found in Supporting Information (Figures S29–S34 ).

[6] = given for comparison to the complexes; reference not given; cited from earlier work
[7] = HEPES buffer, pH 7.5, measured IC50 corrected for expected percent complex formation, read-out: apparent IC50
[8] = Mn^2+ complexes formed in situ with excess ligand, 50 mM HEPES buffer, pH 7.5, 25 °C, concentration as Mn^2+, read-out: measured IC50
[9] = HEPES buffer, pH 7.5, estimated using kcat=kcytc[cytc]/IC50, k cytc = 2.6 × 10^5 M^–1 s^–1, [cyt c] = 5 × 10^–5 M
[10] = collidine buffer, pH 7.5, scan rate 100 mV/s, vs Ag/AgCl

| Molecule | IC50 (superoxide ion [1]; [7]) | IC50 (superoxide ion [1]; [8]) | pK aMnL(H2O) (acid dissociation constant of an associated aqua ligand) [2] | conditional complex formation [2] | Log Ka MnL(H2O) [2] | % Complex (McCord-Fridovich assays) [2] | % Complex (complex formation under cyclic voltammetry conditions) [2] | Log βLH1 (protonation constant of the ligand) [3] | Log Ka1 [3] | Log βMnL (stability constant of the Mn^2+ complex) [2] | Log bMnL [2] | Log βLH2 (protonation constant of the ligand) [3] | Log Ka2 [3] | also measured |
| --- | --- | --- | --- | --- | --- | --- | --- | --- | --- | --- | --- | --- | --- | --- |
| OCCN(CCO)Cc1ccccn1 [PDEA, 2,2′-((Pyridin-2-ylmethyl)azanediyl)bis(ethan-1-ol)] | 70 nM | 110 nM | 7.00(2) | 66% | -7.00(2) | 66% | 66% | 6.78(1) | 6.78(1) | – | – | – | – | – |
| c1ccc(CN(Cc2ccccn2)Cc2ccccn2)nc1 [TMPA, Tris(pyridin-2-ylmethyl)amine] | 300 nM | 300 nM | 4.98(3) | 99% | -4.98(3) | 99% | 93% | 6.01(1) | 6.01(1) | 5.24(2) | 5.24(2) | 10.08(1) | 10.08(1) | – |
| OCCN(Cc1ccccn1)Cc1ccccn1 [DPEA, N,N-Bis(2-pyridylmethyl)ethanolamine] | 140 nM | 150 nM | 5.63(1) | 92% | -5.63(1) | 92% | 98% | 6.10(1) | 6.10(1) | 4.12(1) | 4.12(1) | 9.40(3) | 9.40(3) | – |
| COCCN(Cc1ccccn1)Cc1ccccn1 [DPMEA, 2-Methoxy-N,N-bis(pyridin-2-ylmethyl)ethan-1-amine] | 480 nM | 600 nM | 6.07(2) | 80% | -6.07(2) | 80% | 97% | 6.19(1) | 6.19(1) | 3.71(2) | 3.71(2) | 9.81(1) | 9.81(1) | – |
| OC(CCl)CN(Cc1ccccn1)Cc1ccccn1.[Cl][Mn][Cl] (stereo not shown) [Mn(HPClNOL)Cl2] | – | – | – | – | – | – | – | – | – | – | – | – | – | IC50 (superoxide ion [4]): 350 nM |
| COCCN(CCOC)Cc1ccccn1 [PDMEA, 2-Methoxy-N-(2-methoxyethyl)-N-(pyridin-2-ylmethyl)ethan-1-amine] | 790 nM | 1300 nM | 6.6(1) | 61% | -6.6(1) | 61% | 61% | 6.90(2) | 6.90(2) | 2.32(2) | 2.32(2) | – | – | k cat (superoxide ion [1]; [9]): 1.6 × 10^7 M^–1 s^–1 |
| [Cl][Mn][Cl] [MnCl2, manganese(II) chloride, reference compound] | – | 13000 nM | – | – | – | – | – | – | – | – | – | – | – | ΔE p ([5]; collidine buffer, pH 7.5, scan rate 100 mV/s): 0.285; E oxid [5, 10]: 0.415 V; E red [5, 10]: 0.130 V; E 1/2 vs Ag/AgCl ([5]; collidine buffer, pH 7.5, average of oxidation and reduction peak positions): 0.273 V; E 1/2 vs SHE ([5]; converted using E 1/2 SHE = E 1/2 Ag/AgCl + 0.197 V): 0.470 V; k cat (superoxide ion [1]; 50 mM phosphate buffer, pH 7.5, estimated from IC50): 2.8 × 10^7 M^–1 s^–1; IC50 (superoxide ion [1]; 50 mM phosphate buffer, pH 7.5, read-out: measured IC50): 470 nM; SOD activity in the range of the IC50 values of the complexes (superoxide ion [1]; HEPES buffer): do not observe measurable SOD activity; k cat (superoxide ion [1]; [9]): 1.0 × 10^6 M^–1 s^–1 |
| Escherichia coli MnSOD: manganese superoxide dismutase enzyme of Escherichia coli (protein, UniProt P00448 2-206, looked up) Superoxide dismutase [Mn]: SYTLPSLPYAYDALEPHFDKQTMEIHHTKHHQTYVNNANAALESLPEFANLPVEELITKLDQLPADKKTVLRNNAGGHANHSLFWKGLKKGTTLQGDLKAAIERDFGSVDNFKAEFEKAAASRFGSGWAWLVLKGDKLAVVSTANQDSPLMGEAISGASGFPIMGLDVWEHAYYLKFQNRRPDYIKEFWNVVNWDEAAARFAAKK | – | – | – | – | – | – | – | – | – | – | – | – | – | E 1/2 vs SHE of MnSOD enzymes [6]: 0.40 V |
| Human MnSOD: human manganese superoxide dismutase enzyme (protein, UniProt P04179 25-222, looked up) Superoxide dismutase [Mn], …: KHSLPDLPYDYGALEPHINAQIMQLHHSKHHAAYVNNLNVTEEKYQEALAKGDVTAQIALQPALKFNGGGHINHSIFWTNLSPNGGGEPKGELLEAIKRDFGSFDKFKEKLTAASVGVQGSGWGWLGFNKERGHLQIAACPNQDPLQGTTGLIPLLGIDVWEHAYYLQYKNVRPDYLKAIWNVINWENVTERYMACKK | – | – | – | – | – | – | – | – | – | – | – | – | – | E 1/2 vs SHE of MnSOD enzymes [6]: 0.29 V |
